Patent US6451618B2, “Test for detecting substances which alter the conformational structure of zinc fingers” (priority 1997, dated 2002)
Like-named read-outs stand apart in the source and are kept apart here.

Key:
TFIIIA [1] = target: T1, TFIIIA (Xenopus laevis, UniProt P03001); assay: TFIIIA-dependent DNA renaturation assay; assay type: biochemical; set-up: Immature ovarian tissue was dissected from 4-5 cm female X. laevis frogs; from tissue; host or cells: immature ovarian tissue (oocytes) of Xenopus laevis; 7S particles, 5S RNA removed with RNase A
Target sequence in this assay (P03001 23-366): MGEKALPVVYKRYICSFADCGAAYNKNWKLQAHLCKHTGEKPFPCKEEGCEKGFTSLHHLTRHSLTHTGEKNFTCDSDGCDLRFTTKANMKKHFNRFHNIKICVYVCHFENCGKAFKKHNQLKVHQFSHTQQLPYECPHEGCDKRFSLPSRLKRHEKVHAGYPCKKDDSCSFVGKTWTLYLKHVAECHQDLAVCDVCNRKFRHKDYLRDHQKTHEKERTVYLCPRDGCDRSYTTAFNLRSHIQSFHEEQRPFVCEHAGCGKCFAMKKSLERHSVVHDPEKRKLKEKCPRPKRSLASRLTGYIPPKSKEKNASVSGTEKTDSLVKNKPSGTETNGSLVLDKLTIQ
Description: DNA migration in the Tris-phosphate agarose gel electrophoresis system used in the DNA renaturation assay is sensitive to some types of DNA structural changes. This assay is useful in this study because it can detect structural changes in the nanomolar DNA concentration range.
DNA renaturation (hybridization of complementary single-stranded DNA) was assayed by binding 20 nM Xenopus TFIIIA to 2 nM heat-denatured ^32P labeled 5S gene DNA for 15 min. Reactions are terminated by detergent and electrophoresed on an agarose gel which resolves the slower migrating single-stranded DNA (s.s.) from the faster migrating double-stranded DNA (d.s.) DNA bands are visualized by autoradiography. […] DNA migration in the absence and presence of cadmium.
TFIIIA isolation, ^32P-end-labeling of the 5S RNA gene, denaturation and renaturation reactions, Tris-phosphate agarose gel electrophoresis and autoradiography were performed as described above in the methodology section herein. […]

TFIIIA [2] = target: T1, TFIIIA; assay type: binding; set-up: Immature ovarian tissue was dissected from 4-5 cm female X. laevis frogs; from tissue; host or cells: immature ovarian tissue (oocytes) of Xenopus laevis; 7S particles, 5S RNA removed with RNase A; conditions: for concentration giving complete inhibition of TFIIIA binding: complete loss of DNase I protection and hypersensitivity; for TFIIIA zinc finger affected by xenobiotic: general statement; for concentration at which TFIIIA binding to the 5S RNA gene is inhibited: loss of DNase I protection, nucleotides +43 to +96, TFIIIA preincubated with metal; for reversibility of inhibition of TFIIIA binding: not overcome by added zinc ions; for inhibition of TFIIIA-5S RNA gene interaction: 10 μM, data not shown
Description: Inhibition of TFIIIA binding to the 5S ribosomal RNA gene was assayed by the DNase I protection method. In this assay, TFIIIA isolated from frogs, or as a recombinant protein, was incubated for a short period of time with a radioactively labeled double-stranded DNA fragment containing the 5S ribosomal RNA gene sequence (120 base-pairs in length). In TFIIIA's role in regulating ribosome synthesis, the protein birds specifically and tightly to this 5S gene sequence. When this occurs, the bound protein protects a large region of the 5S RNA gene from DNase I digestion. DNase I normally degrades the 5S gene and in the process generates a series of differently sized DNA fragments which can be resolved by electrophoresis. TFIIIA binding protects a DNA region comprising approximately 53 base pairs from DNase I degradation.
Cadmium and aluminum inhibition of TFIIIA binding was ascertained by observing the loss of this protected region from 5S gene nucleotides (+43 to +96).
The end-labeled fragment was ethanol precipitated, redigested with BamHI and the smaller fragment was purified by PAGE. Specific activity of the fragment was determined by absorbance at 260 nm and Cerenkov counting. To examine the effects of various metals on the TFIIIA-5S RNA gene interaction TFIIIA (10 nM) was incubated with the various metals (chloride salts of all metals were ultrapure grade and purchased from Aldrich; concentrations are indicated in the figure legends) in 20 mM Tris-HCl, pH 7.6, 70 mM NH4Cl, 7 mM MgCl2, 0.4 mM DTT and 0.1% NP-40 for 10 min prior to addition of the DNA fragment containing the end-labeled 5S RNA gene (1 nM). After addition of DNA the reaction (20 μl ) was incubated at room temperature for an additional 15 min. The reactions were then incubated for an additional 1 min in DNase I (2 μg/ml final concentration) and digestion was terminated by addition of 100 μl stop buffer (20 mM Tris-HCl, pH 7.6, 1 mM EDTA, 0.1% SDS, 30 μg/ml sonicated salmon sperm DNA). […] Gel autoradiography was performed overnight at −70° C. with Kodak XAR-5 film and a Dupont Cronex intensifying screen.
Target sequence in this assay (P03001 23-366): as above

estrogen receptor (ER) [3] = conditions: hormone-bound estrogen receptor; cited from earlier work
estrogen receptor (ER) [4] = conditions: cited from earlier work
TFIIIA [5] = target: T1, TFIIIA; conditions: excitation 360 nanometers
Description: Zinc is then removed from TFIIIA (- ZINC sample) by incubation with the zinc chelator, ethylenediamine tetraacetic acid (EDTA). Relative emission fluorescent intensity spectra of the TFIIIA-bound AEDANS probe are recorded using an excitation wavelength of 360 nanometers.
Target sequence in this assay (P03001 23-366 limits assumed): as the sequence (P03001 23-366) above

Compound: [Cl][Al]([Cl])[Cl] [Al^3+, AlCl3]
- inhibition of TFIIIA-dependent DNA renaturation (TFIIIA [1]; TFIIIA preincubated with 50 μM AlCl3 (panel B)): Inhibition of TFIIIA-dependent renaturation
- inhibitory concentration relative to that for Cd2+ (TFIIIA [2]; Al3+ versus Cd2+): about 50 fold
- concentration giving slight inhibition of TFIIIA binding (TFIIIA [2]; FIG. lane 3): 1 µM
- concentration giving complete inhibition of TFIIIA binding (TFIIIA [2]): 5 to 7 µM
- TFIIIA zinc finger affected by xenobiotic (TFIIIA [2]): affected
- concentration at which TFIIIA binding to the 5S RNA gene is inhibited (TFIIIA [2]): 3 µM
- reversibility of inhibition of TFIIIA binding (TFIIIA [2]): irreversible

Compound: [AsH3] [Arsenic, NaH2AsO4]
- inhibition of TFIIIA zinc finger binding to DNA (TFIIIA [2]; preincubated with 0.1, 0.5 or 1.0 mM NaH2AsO4): does not inhibit

Compound: [Cl][Cd][Cl] [Cd^2+, CdCl2]
- inhibition of TFIIIA-dependent DNA renaturation (TFIIIA [1]; TFIIIA 10, 20 or 30 nM preincubated with 1 μM CdCl2): inhibition of DNA renaturation
- in vitro inhibitory concentration relative to serum concentration in moderate to heavy smokers (TFIIIA [2]; 0.1 μM Cd2+ for TFIIIA): approximately 5 fold
- inhibitory molecules of metal ion per TFIIIA molecule (TFIIIA [2]; at 0.1 μM Cd2+): < 10 molecules per TFIIIA molecule
- concentration giving complete inhibition of TFIIIA binding (TFIIIA [2]): 0.25 µM
- TFIIIA zinc finger affected by xenobiotic (TFIIIA [2]): affected
- concentration at which TFIIIA binding to the 5S RNA gene is inhibited (TFIIIA [2]): 0.1 µM
- reversibility of inhibition of TFIIIA binding (TFIIIA [2]): irreversible
- concentration inhibiting DNA binding by activated receptors (estrogen receptor (ER) [3]): 1 mM
- concentration inhibiting initial binding of hormone to receptor (estrogen receptor (ER) [4]): 0.1 mM

Compound: [Cl-].[Cs+] [Cs^2+]
- inhibition of TFIIIA-5S RNA gene interaction (TFIIIA [2]): non-inhibitory
- TFIIIA zinc finger affected by xenobiotic (TFIIIA [2]): not

Compound: O=C(O)CN(CCN(CC(=O)O)CC(=O)O)CC(=O)O [EDTA, ethylenediamine tetraacetic acid]
- emission wavelength after zinc removal (TFIIIA [5]; blue shift from 485 nanometers): 478 nanometers
- increase of emission fluorescence intensity (TFIIIA [5]; zinc removed from TFIIIA by EDTA): 25%

Compound: [Cl-].[Cl-].[Mg+2] [Mg^2+]
- inhibition of TFIIIA-5S RNA gene interaction (TFIIIA [2]): non-inhibitory

Compound: [Cl][Mn][Cl] [Mn^2+]
- inhibition of TFIIIA-5S RNA gene interaction (TFIIIA [2]): non-inhibitory
- TFIIIA zinc finger affected by xenobiotic (TFIIIA [2]): not

Compound: O=[Se]([O-])[O-].[Na+].[Na+] [Na2SeO3]
- TFIIIA zinc finger affected by xenobiotic (TFIIIA [2]): affected
- concentration at which TFIIIA binding to the 5S RNA gene is inhibited (TFIIIA [2]): ≥ 25 µM

Compound: [Cl][Pb][Cl] [PbCl2]
- TFIIIA zinc finger affected by xenobiotic (TFIIIA [2]): affected
- concentration at which TFIIIA binding to the 5S RNA gene is inhibited (TFIIIA [2]): ≥ 10 µM

Compound: HgCl2 [Mercury]
- TFIIIA zinc finger affected by xenobiotic (TFIIIA [2]): not
- inhibition of TFIIIA zinc finger binding to DNA (TFIIIA [2]; preincubated in 5, 10, 15, 20 μM HgCl2): does not inhibit
